Data on one molecule can be found in BindingDB's records for doi:10.1016/j.bmcl.2008.12.079 (Gilead Sciences, 2009).

As usually defined, the IC50 is the midpoint of a concentration-inhibition curve.

This assay concerns the target T1, Gag-Pol polyprotein [1148-1435] (Human immunodeficiency virus 1, UniProt P04585).
T1 construct: 1148-1435
As to the kind of experiment: DNA Strand-Transfer Activity Assay. The note with it: pH 7.3; 22 °C. The method, then:
In the strand-transfer assay, the biotinylated donor DNA was bound to streptavidin-coated plates, and integrase was added to each well to allow processing of the donor DNA. Serially diluted compounds and DIG-tagged target DNA were then added to each well, and 3-end joining reaction was allowed to proceed for 30 min. Signal was detected using horseradishperoxidase-conjugated anti-Digoxin antibody through chemiluminescence measurement.

The molecule `COc1c2c(c(O)c3ncc(Cc4ccc(F)cc4)cc13)C(=O)N(C)C2` [3-[(4-fluorophenyl)methyl]-9-hydroxy-5-methoxy-7-methyl-6H,7H,8H-pyrrolo[3,4-g]quinolin-8-one] registered an IC50 of 100 nM.
